Data on four compounds can be found in US7892354B2, “Process for the parallel detection of crystalline forms of molecular solids” (Solvias AG, priority 2003, dated 2011).

Data set [1] can be described thus: Parallel phase equilibrium experiments in suspensions of 32 solvents and solvent mixtures, Raman spectra grouped into classes. Format: physicochemical. Conditions: 64 experiments, 32 solvents/solvent mixtures; for number of different classes of Raman spectra (ideally corresponding to different solid forms of sertraline HCl): 48 hours shaking, temperature cycled between 18° C. and 28° C., similarity factor 0.5; for occurrence of form II among the solid forms obtained: 48 hours, 18° C. to 28° C., verified against reference spectra, HCl.
Protocol: A reference experiment with the stable form I as starting material is designed in such a way that 64 experiments are carried out for establishing the phase equilibrium in suspensions of 32 different solvents and solvent mixtures. For this purpose, 32 of the vessels in a 96-well quartz microtitre plate are each filled with about 5 mg of sertraline HCl form 1, and 100 microlitres of the corresponding solvent are then introduced into each vessel in accordance with the plan below, and the plate is closed with seals.
The microtitre plate is then shaken on a mechanical shaker (Eppendorf, Thermomixer Comfort) for 48 hours, the temperature of the mechanical shaker being changed cydically between 18° C. and 28° C. A cycle corresponds to one hour. The shaking frequency is 500 per minute. After a time of 48 hours for establishing equilibrium, the microtitre plate is removed from the mechanical shaker and the solid in each of the occupied vessels is investigated directly in the suspension using a Raman microscope (Renishaw Raman microscope system RM 1000). One or two Raman spectra are recorded in each vessel. The solvents in each vessel are then evaporated with the aid of a seal system having flow-through channels according to WO 03/026797 under nitrogen, a flow rate of about 0.03 litre/hour being established. Altogether, 80 Raman spectra are recorded in 64 experiments (32 directly from the suspension and 32 from the dried suspension).
The measured Raman spectra are divided into different classes of spectra on the basis of their differences. A separate evaluation programme which carries out an automatic comparison of measured spectra on the basis of the wave numbers of emission maxima in the Raman spectrum and generates a classification is used for this purpose. A distinguishing criterion is a similarity factor which is determined by visual assessment of selected, individual spectra.
Similarly to the reference example described above, 64 experiments are carried out in 32 different solvents and solvent mixtures in 32 vessels of a 96-well microtitre plate. For this purpose, each of the 32 vessels is occupied with 3 mg of the amorphous form. 100 microlitres of solvent according to the plan given in the comparative example are then filled into each of the 32 vessels, and the plate is closed with seals. The microtitre plate is then shaken on a mechanical shaker (Eppendorf, Thermomixer Comfort), the temperature of the mechanical shaker being changed cyclically between 18° C. and 28° C. A cycle corresponds to one hour, and the shaking frequency is 500 per minute. After a time of 48 hours for establishing the equilibrium, the microtitre plate is removed from the mechanical shaker and the solid in each of the occupied vessels is investigated directly in the suspension using a Raman microscope. One or two Raman spectra are recorded in each vessel. The solvents in each vessel are then evaporated with the aid of a seal system having flow-through channels according to WO 03/026797 under nitrogen, a flow rate of about 0.03 litre per hour being established. Altogether, 92 Raman spectra are recorded in 64 experiments (32 directly from the suspension and 32 from the dried suspension).

The conditions of data set [2]: Morisette et al., Advanced Drug Delivery Reviews 56 (2004) 275-300; cited from earlier work.

Counter-ions that a name gives are not always drawn.

Take `CN[C@H]1CC[C@@H](c2ccc(Cl)c(Cl)c2)c2ccccc21` [amorphous form of sertraline HCl, sertraline HCl]: in data set [1], the “number of different classes of Raman spectra (ideally corresponding to different solid forms of sertraline HCl)” value is 25; the “occurrence of form II among the solid forms obtained” value is “both the thermodynamically stable form I and the important form II are contained in these classes”.
Regarding `CN[C@H]1CC[C@@H](c2ccc(Cl)c(Cl)c2)c2ccccc21` [isopropanol solvate of sertraline HCl, sertraline HCl], the “number of different classes of Raman spectra (ideally corresponding to different solid forms of sertraline HCl)” value in data set [1] came to 16.
For `CN[C@H]1CC[C@@H](c2ccc(Cl)c(Cl)c2)c2ccccc21` [sertraline HCl form I, sertraline HCl], in data set [1], the “number of different classes of Raman spectra (ideally corresponding to different solid forms of sertraline HCl)” value is 11 and the “occurrence of form II among the solid forms obtained” value is recorded as “the important form II did not form”.
With `CN[C@H]1CC[C@@H](c2ccc(Cl)c(Cl)c2)c2ccccc21` [sertraline HCl], in data set [2], the “number of different crystal forms mentioned in the literature” value is reported as “about 27”.
